Assays:
[1] = humans; cited from earlier work
[2] = cited from earlier work; for Tmax / Human PK T½: humans
[3] = Release profile (cumulative fraction released; USP II Paddle system, water); assay type: physicochemical; conditions: memantine-galantamine combination
Excerpt: The cumulative fraction is the amount of drug substance released from the formulation matrix to the serum or gut environment (e.g., U.S. Pat. No. 4,839,177) or as measured with a USP II Paddle system using water as the dissolution medium.

Structure (SMILES)	Main Dose-Dependent Adverse Event [1]	Tmax [2] [h]	Human PK T½ [2] [h]	cum. fraction ([3]; Time 1)	cum. fraction ([3]; Time 2)	cum. fraction ([3]; Time 4)	cum. fraction ([3]; Time 8)	cum. fraction ([3]; Time 12)	cum. fraction ([3]; Time 16)	cum. fraction ([3]; Time 20)	cum. fraction ([3]; Time 24)	T½ ([2]; head of Table 4)	Dose Dependent Tox [1]
CCN(C)C(=O)Oc1cccc([C@H](C)N(C)C)c1 [EXELON ®/Rivastigmine]	Nausea, vomiting	1 to 2.5											
C/C=C1\[C@H]2C=C(C)C[C@]1(N)c1ccc(=O)[nH]c1C2 [HUPERZINE-A]		1.3	4.8										
CC12CC3CC(C)(C1)CC(N)(C3)C2 [Memantine, 1-amino-3,5-dimethyladamantane]				0.2	0.3	0.4	0.5	0.6	0.7	0.8	0.9		
COc1ccc2c3c1O[C@H]1C[C@@H](O)C=C[C@@]31CCN(C)C2 [REMINYL ®/Galantamine]		1 to 2.5	7	0.2	0.3	0.4	0.5	0.6	0.7	0.8	1.0	T½ = 7 hrs	
CC(N)C12CC3CC(CC(C3)C1)C2 (stereo not drawn) [Rimantadine, 1-(1-aminoethyl)adamantane]													Insomnia
